Like-named read-outs stand apart in the source and are kept apart here.

One assay deals with M. sympodialis. Also on record: unit not given here. Conditions: cited from earlier work.
The subject of another assay is M. globosa. Also on record: unit not given here. Conditions: cited from earlier work.
Another assay has as its system M. restricta. Also on record: unit not given here. Conditions: M. restricta strain 7877; cited from earlier work.
The test system of a further assay is M. sympodialis DSM 6171. Put plainly: Agar dilution test, growth inhibition (MIC) of M. sympodialis DSM 6171. It counts as cell-based. Conditions: MLN agar, 7 days at 30° C. As for the experimental part:
(§1) The fatty acid esters and their mixtures were tested for growth inhibition against Malassezia. The following reference strains were included:
(§2) Tests were performed in 6 well plates on solid media using agar dilution tests. Stock solutions of test substances were prepared in DMSO. Lower test concentrations were obtained by diluting stock solutions in DMSO.
(§3) Briefly, microorganisms are inoculated on modified Leeming & Notman (MLN) agar. A well grown plate is harvested in a 0.8% NaCl solution. Dilutions of test substances are prepared according to the concentration range required for the test. 5 μl of the test sample and controls are complemented with 500 μl MLN agar and mixed by shaking. 200 μl of liquid MLN per well are added onto the solidified agar. Afterwards, 20 μl of inoculum solution is added, with except of the blanks, and samples are incubated for 7 days at 30° C. Typical concentrations to be tested are 5000 ppm, 2500 ppm, and 1:1 dilutions from 1000 ppm (500 ppm, 250 ppm, etc).
(§4) Appropriate controls are included to show the growth of organisms without antifungal substances and antifungal activity of reference substances.

The next assay deals with M. globosa CBS 7966. As to the kind of experiment: Agar dilution test, growth inhibition (MIC) of M. globosa CBS 7966. In kind it is cell-based. Conditions: MLN agar, 7 days at 30° C. The protocol: as §1, §2, §3, §4
(In general: Agar dilution tests growth on a series of plates holding different concentrations.)

In a further assay the test system is M. restricta CBS 7877. Put plainly: Agar dilution test, growth inhibition (MIC) of M. restricta CBS 7877. It counts as cell-based. Conditions: MLN agar, 7 days at 30° C. As for the experimental part: as §1, §2, §3, §4

Take `CCCCCCCC(=O)OCCCO` [3-Hydroxypropyl caprylate, 3-hydroxypropyl caprylate]: the MIC in the assay with M. sympodialis (M. sympodialis strain 6171) was 2,000; with M. sympodialis (M. sympodialis strain 7222) it was 1,000; in the assay on M. sympodialis (M. sympodialis strain 7979), 2,000; with M. sympodialis (M. sympodialis strain 42132), 1,000; in the assay with M. globosa (M. globosa strain 7705) it was 1,000; in the assay on M. globosa (M. globosa strain 7966), 1,000. In addition, the MIC was 500 in the assay with M. globosa (M. globosa strain PM1) and 1,000 in the assay on M. restricta.
Consider `CCCCCCCC(=O)OCC` [Ethyl caprylate, ethyl caprylate], for which the MIC in the assay on M. sympodialis (M. sympodialis strain 6171), with M. sympodialis (M. sympodialis strain 7222), with M. sympodialis (M. sympodialis strain 7979), in the assay with M. sympodialis (M. sympodialis strain 42132), in the assay on M. globosa (M. globosa strain 7966) and in the assay with M. globosa (M. globosa strain PM1) was 1,000 in each case. In addition, the MIC with M. restricta is recorded as 4,000.
For `CCCCCCCC(=O)OCC(O)CO` (stereo not drawn) [Glyceryl monocaprylate, glyceryl monocaprylate], the MIC was 2,000 in the assay on M. sympodialis (M. sympodialis strain 6171); 1,000 in the assay with M. sympodialis (M. sympodialis strain 7222); 1,000 with M. sympodialis (M. sympodialis strain 7979); 1,000 with M. sympodialis (M. sympodialis strain 42132); 1,000 in the assay with M. globosa (M. globosa strain 7705); 1,000 in the assay on M. globosa (M. globosa strain 7966). In addition, the MIC with M. restricta is 300.
With “polyglyceryl-3 caprylate [Polyglyceryl-3-caprylate]”, the “Minimal inhibitory concentration (MIC)” value in the assay with M. sympodialis DSM 6171 is on record as 2.500 ppm; in the assay with M. globosa CBS 7966, 1.000 ppm.
For the molecule sorbitan caprylate, the “Minimal inhibitory concentration (MIC)” value in the assay on M. sympodialis DSM 6171 is recorded as 5.000 ppm; in the assay on M. globosa CBS 7966, 1.000 ppm; in the assay with M. restricta CBS 7877, 2.500 ppm.
With xylityl sesquicaprylate, the entries for the “Minimal inhibitory concentration (MIC)” value with M. sympodialis DSM 6171, in the assay with M. globosa CBS 7966 and with M. restricta CBS 7877 were 2.500 ppm, 1.000 ppm and 2.500 ppm, respectively.

Source of the values: patent US20250000766A1, “ANTIMICROBIAL ESTERS FOR SKIN AND SCALP CARE” (SYMRISE AG, priority 2021, published 2025).
